Experimental data published in ChEMBL document CHEMBL1201862, “PubChem BioAssay data set” (2004).
The source made the active and inactive calls.

Tests used:
[1] = target: Multidrug resistance protein CDR2 (Candida albicans (strain SC5314 / ATCC MYA-2876) (Yeast), UniProt P78595); experiment: CaCDR2 efflux pump inhibitors in yeast, dose response, S. cerevisiae AD1-8u, singleplex, Cherry Pick1 hits (AID 588604); type: functional
[2] = target: Induced myeloid leukemia cell differentiation protein Mcl-1 (Homo sapiens, UniProt Q07820); type: functional
[3] = target: T1, Heat shock factor protein 1 (Mus musculus, UniProt P38532); experiment: inhibition of MG132-induced HSE-luciferase signal, confirmation, cell-based, NIH3T3, luminescence, dose retest (AID 2382); type: functional;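 note: NIH3T3 fibroblasts with HSF1-driven luciferase reporter stressed by proteasome inhibitor MG132; luminescence from HSF1-driven luciferase expression after 8 hours of MG132 stress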
T1 sequence (P38532 whole entry): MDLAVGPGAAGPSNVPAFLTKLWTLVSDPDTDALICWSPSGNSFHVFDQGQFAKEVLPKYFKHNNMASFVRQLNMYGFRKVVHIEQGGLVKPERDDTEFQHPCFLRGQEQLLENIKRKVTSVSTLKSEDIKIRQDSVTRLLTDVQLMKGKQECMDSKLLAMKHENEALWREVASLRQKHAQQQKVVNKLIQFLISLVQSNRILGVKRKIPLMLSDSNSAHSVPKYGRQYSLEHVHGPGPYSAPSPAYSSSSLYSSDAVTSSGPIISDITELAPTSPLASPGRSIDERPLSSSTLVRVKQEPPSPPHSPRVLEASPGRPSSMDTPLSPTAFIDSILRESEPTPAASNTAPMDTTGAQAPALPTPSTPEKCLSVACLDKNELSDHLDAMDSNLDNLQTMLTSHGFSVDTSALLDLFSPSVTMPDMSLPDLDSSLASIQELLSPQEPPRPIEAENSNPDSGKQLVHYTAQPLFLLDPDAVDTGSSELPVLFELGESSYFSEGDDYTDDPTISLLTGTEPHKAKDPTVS

Genome polyprotein = Genome polyprotein (dengue virus type 2, UniProt P29990); experiment: Dengue-2 NS5 methyltransferase inhibitors, primary screen, biochemical, confirmation dose response (AID 588689); type: functional
Beta-galactosidase = Beta-galactosidase (Escherichia coli, UniProt Q8VNN2); experiment: beta-galactosidase enzyme inhibitors and activators, dose response, artefact control for CCR6 antagonist project, biochemical, E. coli enzyme, set 3 (AID 504712); type: functional
[4] = target: C-C chemokine receptor type 6 (Homo sapiens, UniProt P51684); experiment: CCR6 receptor antagonists, dose response, cell-based, luminescent beta-arrestin readout (AID 504728); type: functional
[5] = target: T2, Replicative DNA helicase DnaB (Mycobacterium tuberculosis, UniProt P9WMR3); experiment: DnaB intein splicing inhibitors, dose response, biochemical, cell-free fluorescence (AID 449749); type: functional
T2 sequence (P9WMR3 whole entry): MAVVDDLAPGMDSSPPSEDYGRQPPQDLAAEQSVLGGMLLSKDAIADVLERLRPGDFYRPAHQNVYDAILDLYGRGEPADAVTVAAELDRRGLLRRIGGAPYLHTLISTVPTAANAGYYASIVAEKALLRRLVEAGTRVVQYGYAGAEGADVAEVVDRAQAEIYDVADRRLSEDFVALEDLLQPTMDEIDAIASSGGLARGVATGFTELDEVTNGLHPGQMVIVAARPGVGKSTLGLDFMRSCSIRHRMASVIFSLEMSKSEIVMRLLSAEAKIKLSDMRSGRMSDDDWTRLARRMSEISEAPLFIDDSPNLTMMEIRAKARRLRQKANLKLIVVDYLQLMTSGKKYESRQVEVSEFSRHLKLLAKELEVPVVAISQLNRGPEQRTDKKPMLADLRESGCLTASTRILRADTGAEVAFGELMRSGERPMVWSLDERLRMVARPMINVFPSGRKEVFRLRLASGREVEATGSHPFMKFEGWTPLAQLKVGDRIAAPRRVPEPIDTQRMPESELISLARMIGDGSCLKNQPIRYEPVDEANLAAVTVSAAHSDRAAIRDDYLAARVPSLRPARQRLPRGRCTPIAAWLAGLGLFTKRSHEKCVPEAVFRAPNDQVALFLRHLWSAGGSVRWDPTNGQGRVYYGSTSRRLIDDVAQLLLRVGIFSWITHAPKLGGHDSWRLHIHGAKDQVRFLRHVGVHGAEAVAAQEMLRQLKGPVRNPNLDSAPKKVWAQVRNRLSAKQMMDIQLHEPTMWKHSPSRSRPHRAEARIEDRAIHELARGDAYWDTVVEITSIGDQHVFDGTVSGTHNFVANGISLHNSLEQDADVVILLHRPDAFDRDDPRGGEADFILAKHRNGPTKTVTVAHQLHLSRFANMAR

Streptokinase A = target: T3, Streptokinase A (Streptococcus pyogenes serotype M1, UniProt P10520); experiment: S. pyogenes streptokinase expression inhibitors, potency, dose response, plasminogen activation absorbance, OD405 (AID 1914); type: functional, Streptococcus pyogenes M1 GAS;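 note: secreted streptokinase activity via plasminogen activation per viability signal from cell pellet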
T3 sequence (P10520 whole entry): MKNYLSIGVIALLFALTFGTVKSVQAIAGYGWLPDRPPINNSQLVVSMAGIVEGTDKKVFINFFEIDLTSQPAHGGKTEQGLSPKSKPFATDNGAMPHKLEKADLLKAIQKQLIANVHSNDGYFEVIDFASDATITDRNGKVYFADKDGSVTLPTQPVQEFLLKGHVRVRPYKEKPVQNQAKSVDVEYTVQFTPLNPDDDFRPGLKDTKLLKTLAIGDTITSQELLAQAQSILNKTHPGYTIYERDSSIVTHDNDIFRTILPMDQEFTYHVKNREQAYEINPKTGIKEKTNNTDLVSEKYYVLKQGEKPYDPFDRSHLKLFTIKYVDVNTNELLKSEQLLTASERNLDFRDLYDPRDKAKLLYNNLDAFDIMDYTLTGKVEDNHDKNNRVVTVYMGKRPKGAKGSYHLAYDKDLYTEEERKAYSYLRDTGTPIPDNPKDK

Protein RecA = target: T4, Protein RecA (Mycobacterium tuberculosis, UniProt P9WHJ3); experiment: Fluorescence Cell-Free Homogeneous Dose Retest to Identify Inhibitors of RecA-Intein Splicing Activity. [Related pubchem assays (depositor defined):AID2097, AID2223, AID489010, AID492950]; type: functional
T4 sequence (P9WHJ3 whole entry): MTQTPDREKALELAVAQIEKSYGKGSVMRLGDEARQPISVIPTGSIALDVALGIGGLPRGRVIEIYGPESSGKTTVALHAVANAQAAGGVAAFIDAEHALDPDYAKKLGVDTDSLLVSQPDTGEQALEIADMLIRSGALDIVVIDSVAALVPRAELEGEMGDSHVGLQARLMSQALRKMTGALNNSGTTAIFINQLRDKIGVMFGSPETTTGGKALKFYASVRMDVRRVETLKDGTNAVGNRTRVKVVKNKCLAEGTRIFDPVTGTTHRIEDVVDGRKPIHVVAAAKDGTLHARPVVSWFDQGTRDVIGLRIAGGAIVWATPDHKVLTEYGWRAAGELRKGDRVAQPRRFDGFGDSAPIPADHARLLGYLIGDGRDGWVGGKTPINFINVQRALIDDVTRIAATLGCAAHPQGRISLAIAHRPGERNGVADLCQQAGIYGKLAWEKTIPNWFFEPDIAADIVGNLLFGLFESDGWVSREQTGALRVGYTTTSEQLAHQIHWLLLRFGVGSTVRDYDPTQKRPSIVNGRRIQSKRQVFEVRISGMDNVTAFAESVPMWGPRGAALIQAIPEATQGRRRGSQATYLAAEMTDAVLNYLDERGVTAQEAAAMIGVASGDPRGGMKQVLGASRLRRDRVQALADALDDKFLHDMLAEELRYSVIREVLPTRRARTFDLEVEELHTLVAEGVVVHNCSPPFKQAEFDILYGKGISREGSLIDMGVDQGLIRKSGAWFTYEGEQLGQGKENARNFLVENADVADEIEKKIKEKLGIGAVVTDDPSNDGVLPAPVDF

[6] = target: T5, Mitochondrial peptide methionine sulfoxide reductase (Bos taurus, UniProt P54149); experiment: Absorbance-based biochemical high throughput dose response assay for activators of Methionine sulfoxide reductase A (MsrA).; type: functional
T5 sequence (P54149 whole entry): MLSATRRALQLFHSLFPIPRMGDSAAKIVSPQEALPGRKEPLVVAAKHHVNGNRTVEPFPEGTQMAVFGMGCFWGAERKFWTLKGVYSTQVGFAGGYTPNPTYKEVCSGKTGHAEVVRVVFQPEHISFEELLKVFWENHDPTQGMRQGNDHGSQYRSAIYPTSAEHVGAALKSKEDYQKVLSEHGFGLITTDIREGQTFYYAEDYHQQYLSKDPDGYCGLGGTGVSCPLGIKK

C-C chemokine receptor type 6, sequence (P51684 whole entry): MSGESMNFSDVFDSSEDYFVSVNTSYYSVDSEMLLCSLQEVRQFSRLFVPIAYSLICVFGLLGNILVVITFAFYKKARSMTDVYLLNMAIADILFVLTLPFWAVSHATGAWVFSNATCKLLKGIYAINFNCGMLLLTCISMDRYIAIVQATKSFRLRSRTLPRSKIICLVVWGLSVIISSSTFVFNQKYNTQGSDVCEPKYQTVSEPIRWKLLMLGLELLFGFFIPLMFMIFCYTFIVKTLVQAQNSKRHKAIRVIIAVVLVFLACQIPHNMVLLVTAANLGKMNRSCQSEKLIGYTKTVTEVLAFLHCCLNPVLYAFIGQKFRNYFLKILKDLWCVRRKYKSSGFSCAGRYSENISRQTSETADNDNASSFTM
Induced myeloid leukemia cell differentiation protein Mcl-1, sequence (Q07820 whole entry): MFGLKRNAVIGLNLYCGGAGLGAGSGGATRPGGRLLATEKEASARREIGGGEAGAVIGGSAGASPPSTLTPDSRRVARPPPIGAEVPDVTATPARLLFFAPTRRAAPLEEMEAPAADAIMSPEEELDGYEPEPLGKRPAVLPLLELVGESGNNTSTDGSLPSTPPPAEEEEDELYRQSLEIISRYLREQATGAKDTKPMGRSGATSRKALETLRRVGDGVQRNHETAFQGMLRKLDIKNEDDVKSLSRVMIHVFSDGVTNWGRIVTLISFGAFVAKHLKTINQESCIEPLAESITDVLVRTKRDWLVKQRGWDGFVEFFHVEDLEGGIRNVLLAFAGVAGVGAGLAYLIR
Genome polyprotein, sequence (P29990 2492-3391 limits assumed): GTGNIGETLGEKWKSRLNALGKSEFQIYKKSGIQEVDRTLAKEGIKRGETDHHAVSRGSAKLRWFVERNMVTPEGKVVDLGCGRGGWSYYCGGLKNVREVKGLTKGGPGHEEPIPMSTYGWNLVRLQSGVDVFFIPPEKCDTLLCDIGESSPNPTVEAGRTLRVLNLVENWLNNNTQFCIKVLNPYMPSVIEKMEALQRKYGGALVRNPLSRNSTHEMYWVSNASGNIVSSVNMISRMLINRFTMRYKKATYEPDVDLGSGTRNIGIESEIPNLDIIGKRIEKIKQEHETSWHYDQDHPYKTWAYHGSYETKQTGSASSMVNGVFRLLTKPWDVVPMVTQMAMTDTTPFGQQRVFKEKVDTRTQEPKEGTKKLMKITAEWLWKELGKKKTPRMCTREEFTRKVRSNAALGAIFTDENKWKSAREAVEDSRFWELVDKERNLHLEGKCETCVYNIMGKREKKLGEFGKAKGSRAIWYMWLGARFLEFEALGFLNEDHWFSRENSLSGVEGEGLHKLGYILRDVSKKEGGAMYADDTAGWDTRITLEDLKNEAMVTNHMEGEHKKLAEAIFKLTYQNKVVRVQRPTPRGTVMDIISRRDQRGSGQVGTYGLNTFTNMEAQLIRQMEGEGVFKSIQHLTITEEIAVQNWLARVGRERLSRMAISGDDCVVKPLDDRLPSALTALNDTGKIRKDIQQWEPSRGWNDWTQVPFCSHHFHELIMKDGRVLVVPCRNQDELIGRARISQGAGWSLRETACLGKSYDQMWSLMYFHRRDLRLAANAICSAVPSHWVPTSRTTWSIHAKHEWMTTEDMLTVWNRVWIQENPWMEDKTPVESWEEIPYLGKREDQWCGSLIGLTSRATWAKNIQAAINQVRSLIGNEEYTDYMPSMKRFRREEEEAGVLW
Beta-galactosidase, sequence (Q8VNN2 whole entry): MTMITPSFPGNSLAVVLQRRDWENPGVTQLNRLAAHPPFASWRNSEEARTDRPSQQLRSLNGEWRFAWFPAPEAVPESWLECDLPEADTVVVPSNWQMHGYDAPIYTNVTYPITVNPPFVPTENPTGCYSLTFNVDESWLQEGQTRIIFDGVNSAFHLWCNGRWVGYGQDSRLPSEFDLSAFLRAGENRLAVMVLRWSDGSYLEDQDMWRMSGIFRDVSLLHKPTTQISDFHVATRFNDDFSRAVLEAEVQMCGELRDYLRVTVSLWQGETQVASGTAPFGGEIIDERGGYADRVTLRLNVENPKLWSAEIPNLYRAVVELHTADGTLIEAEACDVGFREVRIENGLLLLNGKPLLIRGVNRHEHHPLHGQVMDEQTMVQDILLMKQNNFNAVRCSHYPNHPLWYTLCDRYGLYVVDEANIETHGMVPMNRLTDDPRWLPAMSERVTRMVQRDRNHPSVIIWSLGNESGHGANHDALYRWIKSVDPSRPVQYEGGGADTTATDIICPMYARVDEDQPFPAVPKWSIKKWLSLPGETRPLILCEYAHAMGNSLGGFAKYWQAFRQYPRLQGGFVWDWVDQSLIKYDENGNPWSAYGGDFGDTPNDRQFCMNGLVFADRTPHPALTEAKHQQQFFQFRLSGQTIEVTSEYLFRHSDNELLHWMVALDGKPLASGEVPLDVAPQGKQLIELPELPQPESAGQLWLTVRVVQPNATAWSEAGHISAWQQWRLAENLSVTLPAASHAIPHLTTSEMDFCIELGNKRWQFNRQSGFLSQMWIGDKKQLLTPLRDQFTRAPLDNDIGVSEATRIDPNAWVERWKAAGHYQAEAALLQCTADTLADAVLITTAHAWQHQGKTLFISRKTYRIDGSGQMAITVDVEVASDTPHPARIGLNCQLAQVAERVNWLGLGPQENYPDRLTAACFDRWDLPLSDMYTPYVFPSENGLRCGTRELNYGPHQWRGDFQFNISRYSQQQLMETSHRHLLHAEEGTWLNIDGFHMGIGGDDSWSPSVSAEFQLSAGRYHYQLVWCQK
Multidrug resistance protein CDR2, sequence (P78595 whole entry): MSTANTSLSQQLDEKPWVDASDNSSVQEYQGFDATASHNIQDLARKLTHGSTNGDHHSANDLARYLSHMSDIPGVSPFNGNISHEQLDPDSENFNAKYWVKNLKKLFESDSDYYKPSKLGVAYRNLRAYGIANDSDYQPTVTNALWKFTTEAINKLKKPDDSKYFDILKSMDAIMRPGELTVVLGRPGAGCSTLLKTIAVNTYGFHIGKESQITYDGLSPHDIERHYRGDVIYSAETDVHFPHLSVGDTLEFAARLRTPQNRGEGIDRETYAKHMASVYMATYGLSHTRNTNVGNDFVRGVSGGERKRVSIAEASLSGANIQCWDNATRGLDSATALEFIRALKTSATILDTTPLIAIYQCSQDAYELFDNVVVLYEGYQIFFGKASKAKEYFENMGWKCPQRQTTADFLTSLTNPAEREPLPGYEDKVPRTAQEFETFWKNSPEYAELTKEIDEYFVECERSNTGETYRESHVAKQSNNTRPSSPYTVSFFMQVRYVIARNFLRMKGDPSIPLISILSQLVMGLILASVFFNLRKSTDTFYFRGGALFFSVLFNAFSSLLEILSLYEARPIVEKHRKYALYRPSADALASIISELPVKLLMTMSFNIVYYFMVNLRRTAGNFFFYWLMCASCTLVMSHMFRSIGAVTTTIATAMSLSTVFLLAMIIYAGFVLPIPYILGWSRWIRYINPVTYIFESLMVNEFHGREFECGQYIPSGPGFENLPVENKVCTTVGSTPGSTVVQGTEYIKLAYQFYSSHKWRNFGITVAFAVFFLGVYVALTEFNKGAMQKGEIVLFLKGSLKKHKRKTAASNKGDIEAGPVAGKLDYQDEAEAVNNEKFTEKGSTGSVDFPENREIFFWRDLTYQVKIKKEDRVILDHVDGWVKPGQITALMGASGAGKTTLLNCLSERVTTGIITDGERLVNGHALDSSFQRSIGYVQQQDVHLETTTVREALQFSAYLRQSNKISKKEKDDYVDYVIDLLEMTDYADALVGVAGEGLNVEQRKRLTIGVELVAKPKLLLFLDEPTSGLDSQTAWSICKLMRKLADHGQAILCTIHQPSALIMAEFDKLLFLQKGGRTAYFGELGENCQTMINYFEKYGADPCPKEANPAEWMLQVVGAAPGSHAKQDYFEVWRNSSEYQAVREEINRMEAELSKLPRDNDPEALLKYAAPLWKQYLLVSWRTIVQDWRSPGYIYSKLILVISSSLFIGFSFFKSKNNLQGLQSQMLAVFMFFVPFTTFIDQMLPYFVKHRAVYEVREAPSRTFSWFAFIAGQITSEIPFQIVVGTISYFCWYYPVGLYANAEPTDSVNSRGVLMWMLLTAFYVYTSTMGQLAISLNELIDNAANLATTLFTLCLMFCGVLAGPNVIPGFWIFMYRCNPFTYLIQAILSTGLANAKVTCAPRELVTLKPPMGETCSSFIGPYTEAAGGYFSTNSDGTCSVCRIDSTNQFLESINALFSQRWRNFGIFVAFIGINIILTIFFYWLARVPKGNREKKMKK

Q: O=C1C(Cl)=C(Nc2ccc3cn[nH]c3c2)C(=O)c2ccccc21 was tested. Which EC50 [1] did it give?
A: 40.6 µM (active)

Q: What about the IC50 [2] of the same molecule?
A: 6.25 µM (active)

Q: And the EC50 [3]?
A: 5.42 µM (active)

Q: And the IC50 (Genome polyprotein)?
A: 18.7 µM (active)

Q: What about the IC50 (Beta-galactosidase) of the same molecule?
A: > 66.6 µM (inactive)

Q: What about the IC50 [4] of the same molecule?
A: > 66.6 µM (inactive)

Q: What about the AC50 [5] of the same molecule?
A: 1.65 µM (active)

Q: What about the EC50 (Streptokinase A) of the same molecule?
A: 6.22 µM (active)

Q: What about the EC50 (Protein RecA) of the same molecule?
A: 0.955 µM (active)

Q: What about the EC50 [6] of the same molecule?
A: > 104 µM (inactive)
